{"source": "paper PMC4291223", "about": "“Inhibitors of CLK Protein Kinases Suppress Cell Growth and Induce Apoptosis by Modulating Pre-mRNA Splicing” (PLoS ONE, 2015)", "key": {"[1]": {"molecular_target": "T1, CLK2 (Homo sapiens, UniProt P49760)", "T1 construct": "purchased Life Technologies", "T1 sequence (P49760 whole entry)": "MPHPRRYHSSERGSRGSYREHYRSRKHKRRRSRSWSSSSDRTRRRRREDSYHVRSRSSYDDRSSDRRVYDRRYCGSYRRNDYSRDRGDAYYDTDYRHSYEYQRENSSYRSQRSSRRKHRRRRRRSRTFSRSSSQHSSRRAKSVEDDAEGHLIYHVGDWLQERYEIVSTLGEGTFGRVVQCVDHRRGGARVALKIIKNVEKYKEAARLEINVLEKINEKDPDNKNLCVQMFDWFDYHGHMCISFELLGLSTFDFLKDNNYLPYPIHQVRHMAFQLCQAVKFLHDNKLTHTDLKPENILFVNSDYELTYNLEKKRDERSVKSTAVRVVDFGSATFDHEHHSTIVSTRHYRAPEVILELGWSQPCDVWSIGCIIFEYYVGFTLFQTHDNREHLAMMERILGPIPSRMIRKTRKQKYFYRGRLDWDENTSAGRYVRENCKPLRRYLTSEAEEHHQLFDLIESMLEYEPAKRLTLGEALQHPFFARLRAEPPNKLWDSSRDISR", "test": "In vitro kinase assay (LANCE Ultra), CLK2", "type": "biochemical", "conditions": "for IC50: 20 µM ATP; for activity for CLK2 relative to Cpd-1: stronger than Cpd-1", "description": "The ATP concentration for each assay was adjusted to the Km for each kinase. Kinase assays for SRPK1–3 and CLK1 were performed using the ADP-Glo™ assay (Promega, Madison, WI). The kinase buffer contained 25 mM HEPES (pH 7.5), 10 mM magnesium acetate, 1 mM DTT, 0.01% BSA, and 0.01% Tween-20. The reaction mixtures contained 50 ng/mL SRPK1, 100 ng/mL SRPK2 or SRPK3, or 300 ng/mL CLK1 and 3 μM substrate peptide [GRSRSRSRSRSRSRSR] (Thermo Scientific). After incubating the enzyme, peptide, and compounds for 10 min, kinase reactions were initiated by adding ATP to a final concentration of 5 µM, followed by incubation for 30 min (15 min for SRPK1). The kinase reactions were terminated by adding ADP-Glo™ reagent (Promega). ADP was detected using a kinase detection reagent (Promega). The kinase activity of CLK2 was measured using the LANCE® Ultra assay (Perkin-Elmer, Waltham, MA) with ADP-Glo assay buffer. The reaction mixtures contained 100 ng/mL CLK2 and 50 nM ULight™-myelin basic protein (MBP) peptide (Perkin-Elmer). After incubating the enzyme, peptide, and compounds for 5 min, kinase reactions were initiated by adding ATP to a final concentration of 20 μM, followed by incubation for 30 min. The enzyme reactions were terminated by adding 30 mM EDTA, and phosphorylated ULight-MBP peptides were detected using a europium-labeled anti-phospho-MBP antibody diluted with detection buffer (Perkin-Elmer). The plates were read using an EnVision 2102 multilabel reader (Perkin-Elmer). We defined the absorbance of the reaction without enzyme as 100% inhibitory activity and that of the complete reaction mixture as 0% inhibitory activity. The IC50 values were estimated using the “Sigmoidal dose-response (variable slope)” equation in GraphPad Prism 5 software (GraphPad Software, San Diego, CA), with the maximum and minimum of the curve constrained to 100 and 0, respectively."}, "[2]": {"molecular_target": "T2, SRPK1 (Homo sapiens, UniProt Q96SB4)", "T2 construct": "Full-length human recombinant SRPK1 with a FLAG tag linked to the N-terminus (FLAG-hSRPK1); FLAG (N); made in house; host or cells: Sf9 cells (baculovirus, Bac-to-Bac)", "T2 sequence (Q96SB4 whole entry)": "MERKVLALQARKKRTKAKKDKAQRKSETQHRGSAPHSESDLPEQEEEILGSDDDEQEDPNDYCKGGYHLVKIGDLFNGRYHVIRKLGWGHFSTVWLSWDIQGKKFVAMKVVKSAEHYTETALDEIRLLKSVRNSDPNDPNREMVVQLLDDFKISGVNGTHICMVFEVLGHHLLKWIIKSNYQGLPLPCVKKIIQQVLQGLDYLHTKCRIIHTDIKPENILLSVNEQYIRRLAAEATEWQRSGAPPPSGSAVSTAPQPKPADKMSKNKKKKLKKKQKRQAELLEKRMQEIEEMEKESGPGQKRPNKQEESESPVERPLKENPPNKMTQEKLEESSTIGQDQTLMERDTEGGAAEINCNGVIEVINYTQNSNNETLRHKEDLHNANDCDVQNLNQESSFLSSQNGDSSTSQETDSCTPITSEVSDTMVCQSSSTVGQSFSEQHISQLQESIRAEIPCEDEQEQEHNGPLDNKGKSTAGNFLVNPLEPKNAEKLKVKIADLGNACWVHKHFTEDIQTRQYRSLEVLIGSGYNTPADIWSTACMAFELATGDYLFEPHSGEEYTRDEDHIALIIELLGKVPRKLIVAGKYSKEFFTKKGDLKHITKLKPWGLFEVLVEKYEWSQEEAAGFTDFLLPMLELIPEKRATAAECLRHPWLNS", "test": "In vitro kinase assay (ADP-Glo), SRPK1", "type": "biochemical", "conditions": "5 µM ATP", "description": "Full-length human recombinant SRPK1 with a FLAG tag linked to the N-terminus (FLAG-hSRPK1) was prepared using a baculovirus expression system. The recombinant baculovirus used to express FLAG-hSRPK1 was constructed according to the protocol provided with the Bac-to-Bac Baculovirus Expression System (Invitrogen, Carlsbad, CA). Sf9 cells were infected with the amplified recombinant baculovirus, cultured at 27°C for 3 days, harvested, and stored at −80°C. The frozen cells were suspended in lysis buffer [50 mM Tris-HCl pH 7.5, 150 mM NaCl, 10% (w/v) glycerol, 1 mM DTT, and complete protease inhibitor cocktail (Roche, Basel, Switzerland)], sonicated for 1 min, and centrifuged at 15,000 × g for 30 min. The soluble fraction was applied to an anti-FLAG M2 affinity gel (Sigma-Aldrich, St. Louis, MO), and FLAG-hSRPK1 was eluted with elution buffer [50 mM Tris-HCl pH 7.5, 10% (w/v) glycerol, 1 mM DTT, and 0.1 mg/mL FLAG peptide]. FLAG-hSRPK1 was further purified by anion exchange chromatography (MonoQ 5/50 GL; GE Healthcare, Piscataway, NJ) and gel filtration chromatography (HiLoad 26/60 Superdex 200 pg; GE Healthcare). Protein concentration was measured using BCA protein assay reagents (Thermo Scientific, Pittsburgh, PA). CLK1 and CLK2 were purchased from Life Technologies (Carlsbad, CA) and SRPK2 and SRPK3 were obtained from Millipore (Billerica, MA).\nThe ATP concentration for each assay was adjusted to the Km for each kinase. […] ADP was detected using a kinase detection reagent (Promega). The kinase activity of CLK2 was measured using the LANCE® Ultra assay (Perkin-Elmer, Waltham, MA) with ADP-Glo assay buffer. […] The enzyme reactions were terminated by adding 30 mM EDTA, and phosphorylated ULight-MBP peptides were detected using a europium-labeled anti-phospho-MBP antibody diluted with detection buffer (Perkin-Elmer). The plates were read using an EnVision 2102 multilabel reader (Perkin-Elmer). We defined the absorbance of the reaction without enzyme as 100% inhibitory activity and that of the complete reaction mixture as 0% inhibitory activity. […]"}, "[3]": {"test_system": "HCT-116 cells", "test": "Cell viability assay, HCT-116", "type": "cell-based", "conditions": "Homo sapiens; HCT-116 colorectal cancer"}, "[4]": {"test_system": "NCI-H23 cells", "test": "Cell viability assay, NCI-H23", "type": "cell-based", "conditions": "Homo sapiens; NCI-H23 non-small cell lung cancer"}, "[5]": {"test_system": "S6K pre-mRNA splicing in A549 cells", "test": "S6K pre-mRNA splicing alteration (quantitative RT-PCR), A549", "type": "cell-based, human", "conditions": "ratio of S6K exons 6–8 to exons 6–7 is 0.1", "excerpt": "(§1) To examine whether inhibition of a particular CLK and/or SRPK contributed to the alternative splicing of S6K pre-mRNA, we used an additional series of compounds with the same scaffold as Cpd-1, Cpd-2, and Cpd-3, but different selectivity. First, we examined the correlation between the enzymatic activity and the level of splicing alterations of S6K pre-mRNA for the individual compounds. We used the exon 7-skipped type of S6K variant to calibrate Rc0.1 values, i.e., the concentrations that induced 10% of the copy number of an alternative isoform compared with that of the canonical isoform. The inhibition of CLK1 and CLK2 activities was correlated with the splicing alteration activities (Rc0.1) (R^2 = 0.3353 and 0.4255, respectively). In contrast, there was no correlation between the activities of SRPKs and the Rc0.1 values (R^2 < 0.0468) (Fig. 3A). Next, we compared the levels of splicing alteration and growth inhibition of the compounds. […] Similar correlations between Rc0.1 and GI50 values were also obtained in seven different cancer cell lines after treatment with Cpd-2 or Cpd-3 (Table 2).\n(§2) Total RNA was extracted using an RNeasy Miniprep Kit (Qiagen, Valencia, CA) in accordance with the manufacturer’s instructions. Reverse transcription was performed using a TaqMan Reverse Transcription Reagents Kit (Applied Biosystems, Carlsbad, CA). The PCR conditions were as follows: one cycle of 5 min at 95°C; 35 cycles of 30 s at 94°C, 30 s at 60°C, and 30 s at 72°C; and one cycle of 10 min at 72°C. The PCR products were separated in 2% agarose gels. Real-time PCR was performed using a TaqMan MGB probe (Applied Biosystems), and the amount of FAM fluorescence was measured as a function of the PCR cycle number (CT) using an ABI 7900 Real-time PCR System (Applied Biosystems). The expression level of each mRNA was normalized by that of GAPDH mRNA."}, "[6]": {"test_system": "S6K pre-mRNA splicing in SW620 cells", "test": "S6K pre-mRNA splicing alteration (quantitative RT-PCR), SW620", "type": "cell-based, human", "conditions": "ratio of S6K exons 6–8 to exons 6–7 is 0.1", "excerpt": "as §1, §2"}, "[7]": {"test_system": "nuclear speckles in MDA-MB-468 cells", "test": "Immunofluorescence of nuclear speckles (anti-SC35)", "type": "cell-based, human", "conditions": "MDA-MB-468, 6 h, anti-SC35 antibody", "description": "MDA-MB-468 cells were fixed with 4% paraformaldehyde for 30 min at room temperature, washed with PBS, blocked with 5% BSA in PBS, incubated with an anti-SC35 antibody (Abcam, Cambridge, UK) for 1 h at room temperature, and incubated with a secondary antibody for 1 h. The cells were mounted and counterstained with DAPI (Vector Laboratories, Burlingame, CA) and detected using fluorescence microscopy."}}}
{"smiles": "CC(C)(CCc1nnn[nH]1)c1ccc(C(=O)Nc2cn3cc(C(F)(F)F)ccc3n2)cc1", "note": "[Cpd-1, 4-(2-methyl-4-(1H-tetrazol-5-yl)butan-2-yl)-N-(6-(trifluoromethyl)imidazo[1,2-a]pyridin-2-yl)benzamide]", "values": [{"measurement": "IC50", "setting": "[1]", "result": 45, "unit": "nM"}, {"measurement": "IC50", "setting": "[2]", "result": 61, "unit": "nM"}, {"measurement": "GI50", "setting": "[3]", "result": 70200, "unit": "nM"}, {"measurement": "GI50", "setting": "[4]", "result": 32000, "unit": "nM"}, {"measurement": "Rc0.1", "setting": "[5]", "result": ">10", "unit": "µM"}, {"measurement": "Rc0.1", "setting": "[6]", "result": ">10", "unit": "µM"}, {"measurement": "effect on nuclear speckles", "setting": "[7]", "result": "induced enlargement of nuclear speckles"}]}
{"smiles": "CC(C)(C)c1ccc(C(=O)Nc2cn3cc(-c4cn[nH]c4)ccc3n2)cn1", "note": "[Cpd-2, 6-tert-butyl-N-(6-(1H-pyrazol-4-yl)imidazo[1,2-a]pyridin-2-yl)nicotinamide]", "values": [{"measurement": "IC50", "setting": "[1]", "result": 2.4, "unit": "nM"}, {"measurement": "activity for CLK2 relative to Cpd-1", "setting": "[1]", "result": 10, "unit": "fold"}, {"measurement": "IC50", "setting": "[2]", "result": 200, "unit": "nM"}, {"measurement": "GI50", "setting": "[3]", "result": 2200, "unit": "nM"}, {"measurement": "GI50", "setting": "[4]", "result": 1400, "unit": "nM"}, {"measurement": "Rc0.1", "setting": "[5]", "result": 0.3, "unit": "µM"}, {"measurement": "Rc0.1", "setting": "[6]", "result": 1.2, "unit": "µM"}, {"measurement": "effect on nuclear speckles", "setting": "[7]", "result": "induced enlargement of nuclear speckles"}]}
{"smiles": "CC(C)(CO)c1ccc(C(=O)Nc2cn3cc(-c4cn[nH]c4)ccc3n2)cc1", "note": "[Cpd-3, 4-(1-hydroxy-2-methylpropan-2-yl)-N-(6-(1H-pyrazol-4-yl)imidazo[1,2-a]pyridin-2-yl)benzamide]", "values": [{"measurement": "IC50", "setting": "[1]", "result": 2.1, "unit": "nM"}, {"measurement": "activity for CLK2 relative to Cpd-1", "setting": "[1]", "result": 10, "unit": "fold"}, {"measurement": "IC50", "setting": "[2]", "result": 130, "unit": "nM"}, {"measurement": "GI50", "setting": "[3]", "result": 2500, "unit": "nM"}, {"measurement": "GI50", "setting": "[4]", "result": 2200, "unit": "nM"}, {"measurement": "Rc0.1", "setting": "[5]", "result": 1.2, "unit": "µM"}, {"measurement": "Rc0.1", "setting": "[6]", "result": 1.4, "unit": "µM"}, {"measurement": "effect on nuclear speckles", "setting": "[7]", "result": "induced enlargement of nuclear speckles"}]}
